The assay addresses T1, Human FXR full length (Homo sapiens, UniProt Q96RI1).
T1 construct: Human FXR full length and RXR full length was obtained from Ronald Evans' laboratory; expressed in transfected cells; host or cells: CV-1 cells
T1 sequence (Q96RI1 1-476 isoform Q96RI1-1): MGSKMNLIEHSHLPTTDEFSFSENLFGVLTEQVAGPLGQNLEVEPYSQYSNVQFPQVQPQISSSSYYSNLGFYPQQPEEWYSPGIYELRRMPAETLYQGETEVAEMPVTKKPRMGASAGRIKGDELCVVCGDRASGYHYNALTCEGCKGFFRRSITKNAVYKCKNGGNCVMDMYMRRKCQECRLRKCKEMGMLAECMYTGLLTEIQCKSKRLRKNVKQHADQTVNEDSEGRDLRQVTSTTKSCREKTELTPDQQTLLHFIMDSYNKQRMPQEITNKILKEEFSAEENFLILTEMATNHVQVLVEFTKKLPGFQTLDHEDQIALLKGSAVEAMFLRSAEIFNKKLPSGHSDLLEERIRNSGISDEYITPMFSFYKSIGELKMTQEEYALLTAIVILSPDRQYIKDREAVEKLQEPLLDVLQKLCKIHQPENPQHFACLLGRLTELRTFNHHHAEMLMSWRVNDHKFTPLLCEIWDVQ
T1 sequence (P19793 1-462 partner): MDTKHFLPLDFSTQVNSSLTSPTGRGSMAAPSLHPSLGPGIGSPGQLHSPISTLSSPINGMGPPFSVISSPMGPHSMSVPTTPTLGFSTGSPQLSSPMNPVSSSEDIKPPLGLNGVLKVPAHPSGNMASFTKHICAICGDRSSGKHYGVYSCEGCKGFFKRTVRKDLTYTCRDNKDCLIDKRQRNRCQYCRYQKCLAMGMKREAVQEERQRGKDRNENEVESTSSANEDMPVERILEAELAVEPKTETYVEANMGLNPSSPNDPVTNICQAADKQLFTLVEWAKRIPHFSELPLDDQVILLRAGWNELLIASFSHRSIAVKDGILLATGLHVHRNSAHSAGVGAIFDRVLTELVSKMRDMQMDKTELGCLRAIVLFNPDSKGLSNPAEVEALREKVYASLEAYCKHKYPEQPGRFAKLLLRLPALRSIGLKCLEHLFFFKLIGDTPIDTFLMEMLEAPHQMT
Nature of the assay: FXR activity screen, luciferase reporter in transfected CV-1 cells. The class given is cell-based. On the procedure: CV-1 cells were grown in DMEM+10% charcoal stripped FCS. Cells were seeded into 384-well plates the day before transfection to give a confluency of 50-80% at transfection. A total of […] DNA containing 0.32 micrograms pCMX-hFXRfl, 0.32 micrograms pCMX-hRXRfl, 0.1 micrograms pCMXβGal, 0.08 micrograms pGLFXRE reporter and 0.02 micrograms pCMX empty vector was transfected per well using FuGene transfection reagent according to the manufacturer's instructions (Roche). Cells were allowed to express protein for 48 hours followed by addition of compound.
Human FXR full length and RXR full length was obtained from Ronald Evans' laboratory and PCR amplification of the hFXR cDNA and the hRXR cDNA was performed. The amplified cDNAs was cloned into the vector pCMX generating the plasmids pCMX-hFXRfl and pCMX-hRXRfl. Ensuing fusions were verified by sequencing. The pCMXMH2004 luciferase reporter contains multiple copies of the GAL4 DNA response element under a minimal eukaryotic promoter (Hollenberg and Evans, 1988). pCMXβGal was generated in the Evans laboratory, Salk Institute.
All compounds were dissolved in DMSO and diluted 1:1000 upon addition to the cells. Compounds were tested in quadruple in concentrations ranging from 0.001 to 100 μM. Cells were treated with compound for 24 hours followed by luciferase assay. Each compound was tested in at least two separate experiments.
Medium including test compound was aspirated and washed with PBS. 50 μL PBS including 1 mM Mg^2+ and Ca^2+ were then added to each well. The luciferase assay was performed using the LucLite kit according to the manufacturer's instructions (Packard Instruments). Light emission was quantified by counting on a Perkin Elmer Envision reader. To measure […] activity 25 μL supernatant from each transfection lysate was transferred to a new 384 microplate. Beta-galactosidase assays were performed in the microwell plates using a kit from Promega and read in a Perkin Elmer Envision reader. The beta-galactosidase data were used to normalize (transfection efficiency, cell growth etc.) the luciferase data.
The activity of a compound is calculated as fold induction compared to an untreated sample. For each compound the efficacy (maximal activity) is given as a relative activity compared to Fexaramine, a FXR agonist. The EC50 is the concentration giving 50% of maximal observed activity. EC50 values were calculated via non-linear regression using GraphPad PRISM (GraphPad Software, San Diego, Calif.).
Background: A reporter such as luciferase makes a cellular process visible.

[1] abbreviates: first round, CV-1 cells, 24 hours, read-out: 1st RND EC50.
Setting [2] is: second round, CV-1 cells, 24 hours, read-out: 2nd RND EC50.

Like-named read-outs stand apart in the source and are kept apart here.

For orientation: EC50 means the concentration needed to bring the measured effect to its halfway point. As for `COC(=O)/C=C/c1cccc(N(Cc2cccc3ccc(N(C)C)cc23)C(=O)C2CCCCC2)c1` [NSSK00001], the EC50 is, setting by setting: under setting [1], 68.6 nM; under setting [2], 55.8 nM.
`COC(=O)/C=C/c1cccc(N(Cc2cccc3ccc(N(C)C)c(F)c23)C(=O)C2CCCCC2)c1` [NSSK00002]: the EC50 runs as follows: under setting [1], 96.8 nM; under setting [2], 65.9 nM.
For the compound `COC(=O)/C=C/c1cccc(N(Cc2ccc(-c3ccc4c(cnn4C)c3)cc2)C(=O)C2CCCCC2)c1` [NSSK00004], the EC50 under setting [1] is 237 nM and the concentration for a half-maximal effect (EC50) under setting [2] came out at 266 nM.
With `COC(=O)/C=C/c1cncc(N(Cc2cccc3cc4cnn(C)c4cc23)C(=O)C2CCCCC2)c1` [NSSK00005], the EC50 under setting [1] was 1820 nM and the EC50 under setting [2] is 2100 nM.
For `COC(=O)/C=C/c1cccc(N(Cc2cccc3cc4cnn(C)c4c(F)c23)C(=O)C2CCCCC2)c1` [NSSK00006], in that order: 273 nM and 243 nM.
Turning to `COC(=O)/C=C/c1cc(F)cc(N(Cc2cccc3cc4cnn(C)c4c(F)c23)C(=O)C2CCCCC2)c1` [NSSK00007], the EC50 is, setting by setting: under setting [1], 473 nM; under setting [2], 169 nM.
Regarding `COC(=O)/C=C/c1cncc(N(Cc2cccc3cc4cnn(C)c4c(F)c23)C(=O)C2CCCCC2)c1` [NSSK00008], the EC50 by setting is: under setting [1], 2000 nM; under setting [2], 1400 nM.
For `COC(=O)/C=C/c1cncc(N(Cc2cccc3cc4cnn(C)c4c(Cl)c23)C(=O)C2CCCCC2)c1` [NSSK00009], in that order: 3300 nM and 4900 nM.
As for `[2H]C(c1ccc(-c2ccc3c(cnn3C)c2)cc1F)N(C(=O)C1CCCCC1)c1cc(F)cc(/C=C/C(=O)OC)c1` (stereo not shown) [NSSK00011], the EC50 under setting [1] came to 289 nM and the EC50 under setting [2] is 379 nM.
Turning to `[2H]C(c1ccc(-c2ccc3c(cnn3C)c2)cc1F)N(C(=O)C1CCCCC1)c1cncc(/C=C/C(=O)OC)c1` (stereo not shown) [NSSK00012], the EC50 is, setting by setting: under setting [1], 1200 nM; under setting [2], 1200 nM.
`[2H]C(c1ccc(-c2ccc3c(cnn3C)c2)cc1Cl)N(C(=O)[C@@H]1C[C@@H]2CC[C@H]1C2)c1cccc(/C=C/C(=O)OC)c1` (stereo partly shown) [NSSK00013]: the EC50 under setting [1] turned out to be 390 nM and the 50% effective concentration (EC50) under setting [2] is 430 nM.
`[2H]C(c1ccc(-c2ccc3c(cnn3C)c2)cc1Cl)N(C(=O)C1CCCCC1)c1cccc(/C=C/C(=O)OC)c1` (stereo not shown) [NSSK00014]: the EC50 turned out to be 346 nM under setting [1] and 475 nM under setting [2].
Take `[2H]C(c1ccc(-c2ccc3c(cnn3C)c2)cc1Cl)N(C(=O)C1CCCCC1)c1cc(F)cc(/C=C/C(=O)OC)c1` (stereo not shown) [NSSK00016]: the EC50 runs as follows: under setting [1], 285 nM; under setting [2], 377 nM.
For `COC(=O)/C=C/c1cccc(N(Cc2ccc(-c3ccc4c(cnn4C)c3)cc2)C(=O)[C@H]2C[C@H]3CC[C@@H]2C3)c1` [NSSK00017], the EC50 reads like this: under setting [1], 756 nM; under setting [2], 500 nM.
With `COC(=O)/C=C/c1cncc(N(Cc2cccc3cc4cnn(C)c4cc23)C(=O)[C@@H]2C[C@@H]3CC[C@H]2C3)c1` [NSSK00018], the EC50 is 380 nM under setting [1] and 415 nM under setting [2].
As for `COC(=O)/C=C/c1cccc(N(Cc2cccc3cc4cnn(C)c4c(F)c23)C(=O)C2C[C@H]3CC[C@@H]2C3)c1` (stereo partly shown) [NSSK00019], the EC50 was 923 nM under setting [1] and 554 nM under setting [2].
For `COC(=O)/C=C/c1cc(F)cc(N(Cc2cccc3cc4cnn(C)c4c(F)c23)C(=O)C2C[C@H]3CC[C@@H]2C3)c1` (stereo partly shown) [NSSK00020], in that order: 743 nM and 464 nM.
Take `COC(=O)/C=C/c1cncc(N(Cc2cccc3cc4cnn(C)c4c(Cl)c23)C(=O)C2C[C@H]3CC[C@@H]2C3)c1` (stereo partly shown) [NSSK00022]: the EC50 under setting [1] came to 3200 nM and the EC50 under setting [2] came out at 2700 nM.
In the case of `[2H]C(c1ccc(-c2ccc(N(C)C)cc2)cc1)N(C(=O)C1CCCCC1)c1cc(F)cc(/C=C/C(=O)OC)c1` (stereo not shown) [NSSK00025], the EC50 by setting is: under setting [1], 150 nM; under setting [2], 168 nM.
For `[2H]C(c1ccc(-c2ccc(N(C)C)cc2)cc1)N(C(=O)[C@@H]1C[C@@H]2CC[C@H]1C2)c1cncc(/C=C/C(=O)OC)c1` (stereo partly shown) [NSSK00026], in that order: 587 nM and 910 nM.
Regarding `[2H]C(c1ccc(-c2ccc(N(C)C)cc2)cc1F)N(C(=O)C1CCCCC1)c1cccc(/C=C/C(=O)OC)c1` (stereo not shown) [NSSK00027, methyl (E)-3-(3-(N-((4′-(dimethylamino)-3-fluoro-[1,1′-biphenyl]-4-yl)methyl-d)cyclohexanecarboxamido)phenyl)acrylate], the EC50 was found to be 48.9 nM under setting [1]; 118 nM (retest, read-out: EC50 (retested)); 46.6 nM under setting [2].
With `[2H]C(c1ccc(-c2ccc(N(C)C)cc2)cc1F)N(C(=O)[C@@H]1C[C@@H]2CC[C@H]1C2)c1cncc(/C=C/C(=O)OC)c1` (stereo partly shown) [NSSK00029], the EC50 was found to be 605 nM under setting [1] and 510 nM under setting [2].
Take `[2H]C(c1ccc(-c2ccc(N(C)C)cc2)cc1F)N(C(=O)C1CCCCC1)c1cncc(/C=C/C(=O)OC)c1` (stereo not shown) [NSSK00030]: the EC50 by setting is: under setting [1], 656 nM; under setting [2], 375 nM.
`[2H]C(c1ccc(-c2ccc(N(C)C)cc2)cc1Cl)N(C(=O)C1CCCCC1)c1cccc(/C=C/C(=O)OC)c1` (stereo not shown) [NSSK00031]: the EC50 under setting [1] worked out at 366 nM and the EC50 under setting [2] stood at 249 nM.
For the compound `[2H]C(c1ccc(-c2ccc(N(C)C)cc2)cc1Cl)N(C(=O)C1CCCCC1)c1cncc(/C=C/C(=O)OC)c1` (stereo not shown) [NSSK00032], the EC50 reads like this: under setting [1], 2600 nM; under setting [2], 2900 nM.
For `[2H]C(c1ccc(-c2ccc3c(cnn3C)c2)cc1)N(C(=O)C1CCCCC1)c1cccc(/C=C/C(=O)OC)c1` (stereo not shown) [NSSK00033], the EC50 under setting [1] stood at 169 nM and the 50% effective concentration (EC50) under setting [2] turned out to be 254 nM.
For `[2H]C(c1ccc(-c2ccc3c(cnn3C)c2)cc1)N(C(=O)C1CCCCC1)c1cncc(/C=C/C(=O)OC)c1` (stereo not shown) [NSSK00034] the same measures were 2200 nM and 2680 nM.
For the compound `COC(=O)/C=C/c1cccc(N(Cc2ccc(-c3ccc4c(cnn4C)c3)cc2)C(=O)C2CCN(C)CC2)c1` [NSSK00035], the EC50 amounted to 3300 nM under setting [1] and 4490 nM under setting [2].
Turning to `COC(=O)/C=C/c1cccc(N(Cc2cccc3cc4cnn(C)c4c(F)c23)C(=O)C2CCN(C)CC2)c1` [NSSK00036], the EC50 is, setting by setting: under setting [1], 18600 nM; under setting [2], 4900 nM.
For `[2H]C(c1ccc(-c2ccc3c(cnn3C)c2)cc1F)N(C(=O)c1ccccc1)c1cccc(/C=C/C(=O)OC)c1` (stereo not shown) [NSSK00038], in that order: 1370 nM and 1900 nM.
`[2H]C(c1ccc(-c2ccc3c(cnn3C)c2)cc1F)N(C(=O)c1ccccc1)c1cc(F)cc(/C=C/C(=O)OC)c1` (stereo not shown) [NSSK00039]: the EC50 by setting is: under setting [1], 1550 nM; under setting [2], 870 nM.
For `[2H]C(c1ccc(-c2ccc3c(cnn3C)c2)cc1Cl)N(C(=O)c1ccccc1)c1cc(F)cc(/C=C/C(=O)OC)c1` (stereo not shown) [NSSK00041] the same measures were 1100 nM and 1200 nM.
Consider `COC(=O)/C=C/c1cccc(N(Cc2ccc(-c3ccc(N(C)C)cc3)cc2)C(=O)[C@@H]2C[C@@H]3CC[C@H]2C3)c1` [NSSK00042], for which the EC50 runs as follows: under setting [1], 135 nM; under setting [2], 620 nM.

Source of the values: US20190084939A1, “ANALOGS OF FEXARAMINE AND METHODS OF MAKING AND USING” (Salk Institute for Biological Studies, priority 2014, published 2019).
